Results from patent US12240846B2 (Enliven Inc., priority 2020, dated 2025).

Experiments:
ABL1 = biological target: T1, ABL1 (Homo sapiens, UniProt P00519); test: Luminescence-based ABL kinase assay (300 μM ATP), ADP-Glo; format: biochemical
T1 construct: purchased Carna Biosciences
Source text: Compounds were serially diluted in DMSO. […] Luminescence signal positively correlates with kinase activity.

pCRKL in K562 cells = test: pCRKL ELISA assay in K562 cells; format: cell-based; conditions: Homo sapiens, 1.5 h, 90 minutes incubation, read-out: pCRKL ELISA, Cell Line IC50 (nM) K562
Protocol: (§1) K562 or Ba/F3 ABL T315I cells (2.0*10^5 cells/100 μl/well) were seeded in 96 well (Corning, cat #3799). Compounds were dissolved in DMSO, serially diluted in DMSO and then were added, mixed, and incubated for 90 minutes at 37° C., 5% CO2. Following the 90-minute incubation, plates were centrifuged for 5 min at 3000 RPM and supernatant was removed from each well. Cells were washed 3 times with 150 μl PBS prior to addition of 100 μl cell RIPA lysis buffer (Boston BioProducts, cat #BP-115D) supplied with 1× complete ULTRA cocktail inhibitor (Roche, 05892791001) and 1× PhosSTOP Phosphatase Inhibitor Cocktail Tablets (Roche, 04906837001). Cells were incubated with lysis buffer for 1 hour at 4° C. prior to storage at −80C.
(§2) A capture antibody able to detect phosphorylated and non-phosphorylated CRKL (R&D Systems, cat #AF5127) was added to Meso Scale Discovery (MSD) standard bind plates (MSD, cat #L15XA-3) at 5 ug/mL and incubated at 4° C. overnight. The next day, plates were washed with PBS+ 0.05% Tween20 (PBST) and 150 μl of 5% BSA blocking solution was added for 1 hour at room temperature with shaking. Plates were washed with PBST. Lysates were thawed and 30 μl of lysate was added to the MSD plates and incubated for 2 hours at room temperature with shaking. MSD plates were washed with PBST and 30 μl of a detection antibody that binds phosphorylated pCRKL (R&D Systems, cat #MAB6910) was added at 1 ug/mL to each well. Plates were incubated for 1 hour at room temperature with shaking. Plates were washed with PBST prior to addition of 30 μl of a sulfo tagged goat anti mouse detection antibody (MSD cat #R32AC-1). Plates were incubated for 1 hour at room temperature with shaking. Plates were washed with PBST prior to addition of 150 ul of 1×MSD read buffer T (MSD, cat #R92TC-2). Electrochemiluminescence (ECLU) was read on an MSD plate reader (Meso Scale Discovery). The remaining activity by calculated as follows: % Relative activity=100× (ELCUsample−ECLULC)/(ECLUHC−ECLULC). The low and high controls (LC/HC) are generated from lysate from wells without cells or with cells treated with 0.1% DMSO, respectively. IC50 values were calculated using XLFit software using a nonlinear regression model with a sigmoidal dose response and are shown in Table 4 and Table 5 below.

K562 cells = test: K562 cell proliferation assay (CellTiter-Glo); format: cell-based; conditions: Homo sapiens, K562 cell viability, 72 hours, read-out: Cell Line (IC50, nM) K562
[1] = system: pCRKL in Ba/F3 ABL1 (T315I) cells; test: pCRKL ELISA assay in Ba/F3 ABL1 (T315I) cells; format: cell-based; conditions: Mus musculus, BaF3, 1.5 h, 90 minutes incubation, read-out: pCRKL ELISA, Cell Line IC50 (nM) Ba/F3 ABL1 (T315I)
Protocol: as §1, §2

HL60 cells = test: HL60 cell proliferation assay (CellTiter-Glo); format: cell-based; conditions: Homo sapiens, HL-60, HL60 cell viability, 72 hours, read-out: Cell Line (IC50, nM) HL60
ABL1 (T315I) = ABL1 (T315I) (Homo sapiens, UniProt P00519, T315I); test: Luminescence-based ABL kinase assay (300 μM ATP), ADP-Glo; format: biochemical

IC50 (ABL1)	IC50 (pCRKL in K562 cells)	IC50 (K562 cells)	IC50 [1]	IC50 (HL60 cells)	IC50 (ABL1 (T315I))	Compound
13.4 nM	61.8 nM	28.6 nM	171 nM	> 10000 nM	12.9 nM	COc1ncc(F)c(OC)c1-c1cc2cc(NC(=O)[C@H]3C[C@@H]3CN3CCN(C)CC3)ncc2n1C (single isomer, unassigned) [Compound 128]
39.7 nM	241 nM	123 nM	329 nM	4150 nM	79.6 nM	COc1ncccc1-c1cc2cc(NC(=O)[C@@H]3C[C@@H]3F)ncc2n1C [Compound 35, (1S,2S)-2-fluoro-N-[2-(2-methoxypyridin-3-yl)-1-methylpyrrolo[2,3-c]pyridin-5-yl]cyclopropane-1-carboxamide]
11.3 nM	73.2 nM	27.5 nM	248 nM	1350 nM	23.9 nM	COc1ncc(F)c(OC)c1-c1cc2cc(NC(=O)[C@@H]3C[C@@H]3F)ncc2n1C [Compound 38, (1S,2S)-2-fluoro-N-[2-(5-fluoro-2,4-dimethoxypyridin-3-yl)-1-methylpyrrolo[2,3-c]pyridin-5-yl]cyclopropane-1-carboxamide]
36 nM	96.4 nM	33.6 nM	263 nM	3780 nM	71.8 nM	COc1ncnc(OC)c1-c1cc2cc(NC(=O)[C@@H]3C[C@@H]3F)ncc2n1C [Compound 39, (1S,2S)-N-[2-(4,6-dimethoxypyrimidin-5-yl)-1-methylpyrrolo[2,3-c]pyridin-5-yl]-2-fluorocyclopropane-1-carboxamide]
37.1 nM	137 nM	38.7 nM	1140 nM	3130 nM	54.7 nM	COc1nc(C)nc(OC)c1-c1cc2cc(NC(=O)[C@@H]3C[C@@H]3F)ncc2n1C [Compound 72, (1S,2S)-N-[2-(4,6-dimethoxy-2-methylpyrimidin-5-yl)-1-methylpyrrolo[2,3-c]pyridin-5-yl]-2-fluorocyclopropane-1-carboxamide]
8.65 nM	45.3 nM	11.6 nM	93.2 nM	682 nM	13.6 nM	COc1ccnc(OC)c1-c1cc2cc(NC(=O)[C@@H]3C[C@@H]3F)ncc2n1C [Compound 75, (1S,2S)-N-[2-(2,4-dimethoxypyridin-3-yl)-1-methylpyrrolo[2,3-c]pyridin-5-yl]-2-fluorocyclopropane-1-carboxamide]
46.7 nM	326 nM	200 nM	194 nM	6240 nM	55.4 nM	COc1ncc(F)cc1-c1cc2cc(NC(=O)[C@@H]3C[C@@H]3F)ncc2n1C [Compound 76, (1S,2S)-2-fluoro-N-[2-(5-fluoro-2-methoxypyridin-3-yl)-1-methylpyrrolo[2,3-c]pyridin-5-yl]cyclopropane-1-carboxamide]
2.26 nM	29.8 nM	6.01 nM		548 nM	22.2 nM	COc1nccc(OC2CC2)c1-c1cc2cc(NC(=O)[C@@H]3C[C@@H]3F)ncc2n1C [Compound 90, (1S,2S)-N-[2-(4-cyclopropoxy-2-methoxypyridin-3-yl)-1-methylpyrrolo[2,3-c]pyridin-5-yl]-2-fluorocyclopropane-1-carboxamide]
12.7 nM	66.3 nM	47.8 nM		3550 nM	43.5 nM	[2H]C([2H])([2H])Oc1ncnc(OC([2H])([2H])[2H])c1-c1cc2cc(NC(=O)[C@@H]3C[C@@H]3F)ncc2n1C [Compound 95, (1S,2S)-N-(2-(4,6-bis(methoxy-d3)pyrimidin-5-yl)-1-methyl-1H-pyrrolo[2,3-c]pyridin-5-yl)-2-fluorocyclopropane-1-carboxamide]
11.6 nM	99.4 nM	63 nM	253 nM	605 nM	38.8 nM	COc1cc(C)nc(OC)c1-c1cc2cc(NC(=O)[C@@H]3C[C@@H]3F)ncc2n1C [Compound 98, (1S,2S)-N-(2-(2,4-dimethoxy-6-methylpyridin-3-yl)-1-methyl-1H-pyrrolo[2,3-c]pyridin-5-yl)-2-fluorocyclopropane-1-carboxamide]
3.98 nM	35.5 nM	17.7 nM	172 nM	385 nM	7.85 nM	COc1nc(N)nc(OC)c1-c1cc2cc(NC(=O)[C@@H]3C[C@@H]3F)ncc2n1C [Compound 103, (1S,2S)-N-(2-(2-amino-4,6-dimethoxypyrimidin-5-yl)-1-methyl-1H-pyrrolo[2,3-c]pyridin-5-yl)-2-fluorocyclopropane-1-carboxamide]

Compound	IC50 (ABL1)	IC50 (pCRKL in K562 cells)	IC50 (K562 cells)	IC50 [1]	IC50 (HL60 cells)	IC50 (ABL1 (T315I))
COc1ccccc1-c1cc2cc(NC(=O)NCCN3CCN(C)CC3)ncc2n1C [Compound 79, 3-[2-(2-methoxyphenyl)-1-methylpyrrolo[2,3-c]pyridin-5-yl]-1-[2-(4-methylpiperazin-1-yl)ethyl]urea]	79.2 nM	594 nM	329 nM		> 10000 nM	77 nM
